From paper PMC8999677, “Critical Assessment of a Structure-Based Screening Campaign for IDO1 Inhibitors: Tips and Pitfalls” (International Journal of Molecular Sciences, 2022)

Legend:
[1] = biological target: fluorescently labelled rhIDO1 (NT650-IDO1) (Homo sapiens, UniProt P14902); assay: Single-point MST binding assay at 250 µM; conditions: 250 µM compound, 50 nM labelled rhIDO1; F-norm outside vehicle signal and SD
P1.HTR cells = assay: Cytotoxicity seen in the P1.HTR cellular assay; format: cell-based, mouse; conditions: 30 µM, data not shown
Experimental: Accordingly, no correlation could be found between cellular activities and enzymatic binding data of tested compounds.
A cellular assay was performed to assess the functional activity of confirmed hit compounds against IDO1. Briefly, P1.HTR cells, a highly transfectable clonal variant of mouse mastocytoma P815 [59], were cultured in Iscove’s modified Dulbecco’s medium supplemented with 10% fetal calf serum (FCS), 1 mM glutamine and penicillin/streptomycin at 37 °C in a humidified 7% CO2 incubator. P1.HTR cells were transfected by electroporation with plasmid constructs coding for murine IDO1 (P1.IDO1). A stable transfectant cell line was obtained by puromycin selection. Cells at the concentration of 0.25 × 10^6 cell/mL were incubated with 30 µM of compounds for 16 h, using a culture medium containing L-Trp at a concentration of 78.4 µM and a HEPES buffer at pH 7.2.

[2] = biological target: recombinant human IDO1 (rhIDO1) (Homo sapiens, UniProt P14902); assay: Full-point MST binding assay against labelled rhIDO1; conditions: for BEI (binding efficiency index): BEI = pKd/MW (kDa)
Chain of recombinant human IDO1 (rhIDO1) (P14902 whole entry): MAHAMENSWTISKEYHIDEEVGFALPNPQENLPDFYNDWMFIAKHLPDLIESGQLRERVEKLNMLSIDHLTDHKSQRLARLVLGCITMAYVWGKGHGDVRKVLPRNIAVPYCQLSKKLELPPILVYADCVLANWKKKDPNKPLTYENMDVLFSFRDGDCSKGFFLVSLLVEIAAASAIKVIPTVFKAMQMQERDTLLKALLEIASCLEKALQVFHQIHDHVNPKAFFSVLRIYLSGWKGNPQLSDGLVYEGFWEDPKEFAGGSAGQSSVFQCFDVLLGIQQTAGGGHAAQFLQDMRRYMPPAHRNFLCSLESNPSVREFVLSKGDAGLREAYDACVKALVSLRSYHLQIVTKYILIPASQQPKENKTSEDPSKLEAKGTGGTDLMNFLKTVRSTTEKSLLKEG

murine IDO1 = biological target: T1, murine IDO1 (Mus musculus, UniProt P28776); assay: Cellular assay of IDO1 inhibition, L-Kyn production in P1.HTR cells; format: cell-based; conditions: 16 h; for FC L-Kyn (fold change of L-Kyn production): 30 µM compound, P1.HTR cells stably transfected with murine IDO1, versus vehicle, mean ± SD
T1 construct: expressed in transfected cells
T1 sequence (P28776 whole entry): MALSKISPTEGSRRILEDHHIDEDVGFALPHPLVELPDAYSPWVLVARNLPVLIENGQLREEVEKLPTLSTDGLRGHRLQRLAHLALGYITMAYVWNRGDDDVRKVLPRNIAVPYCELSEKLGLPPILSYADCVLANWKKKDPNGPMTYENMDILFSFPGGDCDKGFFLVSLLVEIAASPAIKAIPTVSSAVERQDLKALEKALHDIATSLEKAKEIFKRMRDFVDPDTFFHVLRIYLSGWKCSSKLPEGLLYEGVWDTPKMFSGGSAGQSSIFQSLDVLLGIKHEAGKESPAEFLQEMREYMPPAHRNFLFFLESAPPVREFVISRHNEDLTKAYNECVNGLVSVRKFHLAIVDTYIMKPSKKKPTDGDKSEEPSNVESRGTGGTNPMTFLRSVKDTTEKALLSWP
Experimental: The functional activity of confirmed IDO1 ligands was estimated in murine mastocytoma cell line (P1.HTR) stably transfected with murine IDO1. Specifically, P1.HTR cells were cultured in presence of each compound at 30 µM concentration.
Briefly, P1.HTR cells, a highly transfectable clonal variant of mouse mastocytoma P815 [59], were cultured in Iscove’s modified Dulbecco’s medium supplemented with 10% fetal calf serum (FCS), 1 mM glutamine and penicillin/streptomycin at 37 °C in a humidified 7% CO2 incubator. P1.HTR cells were transfected by electroporation with plasmid constructs coding for murine IDO1 (P1.IDO1). A stable transfectant cell line was obtained by puromycin selection.
A cell culture incubated with an equivalent volume of DMSO (the vehicle in which compounds were solubilized) was used as a reference control. After the incubation, supernatants of cell cultures were recovered, and kynurenine concentration was detected by the HPLC method. Every cell assay was conducted in triplicate. Results were expressed as the mean ± standard deviation of the kynurenine fold change (L-Kyn FC), meaning the ratio between kynurenine concentration secreted in the supernatant of the compound-treated versus vehicle-treated cells. The detection of L-Kyn concentrations was performed by using a PerkinElmer, series 200 HPLC instrument. A Kinetex C18 column (250 × 4.6 mm, 5 μm, 100 A; Phenomenex, CA, USA), maintained at the temperature of 25 °C and a pressure of 1800 PSI, was used. […] L-Kyn was detected at 360 nm by an UV detector. The software TURBOCHROM 4 was used for evaluating the concentration of L-Kyn in samples by means of a calibration curve. The detection limit of the analysis was 0.05 μM.

[3] = Potentiometric pKa determination (Sirius T3); format: physicochemical; conditions: for exppKa: Sirius T3, Yasuda-Shedlovsky extrapolation to 0% methanol, first or only value
Text: (§1) Confirmed IDO1 ligands were profiled for the calculation and experimental determination of their acidic constant (calcpKa, exppKa) and n-octanol/water partition coefficient (calclogP, explogP). […] Four of these compounds (19–22) were titrated with a potentiometric method to determine the relative exppKa and explogP, using a Sirius T3 instrument. The remaining two compounds (16, 17) were not experimentally analyzed because their calcpKa values were too close to the upper detection limit of the Sirius T3 instrument.
(§2) Acidic constants (pKa) and octanol/water partition coefficients (logP) of confirmed hit compounds were firstly calculated using the pKa and logP plugins of the program Marvin (Marvin v20.11, ChemAxon, Budapest, Hungary).
(§3) The experiments were set up with Sirius T3 control software (Sirius T3 v1.1.3.0, Pion Inc. Ltd., Forest Row, East Sussex, UK), specifying the volume of the stock solution to be used, molecular weight, number of expected pKa and their calculated values (calcpKa), predicted logP (calclogP), and titration mode (from pH = 2 to 12 for basic compounds, and from pH = 12 to 2 for acidic compounds). To avoid issues of poor solubility during the titration in ISA water, the pKa analyses were carried out in triplicate with different ratios of organic cosolvent methanol and water (50%, 40%, and 30% methanol). Considering the modification of water’s dielectric constant in the presence of an organic solvent, the pKa at 0% of co-solvent was obtained through the method of Yasuda–Shedlovsky (YS) extrapolation to zero [58]. The validity of the analysis was assessed with the r^2 of the YS method, and results were considered acceptable with an r^2 ≥ 0.9. Titration results were analyzed with Sirius T3 refine software (Sirius T3 v1.1.3.0, Pion Inc. Ltd., Forest Row, East Sussex, UK). Octanol/water partition coefficient (logP) was measured through a potentiometric titration in a biphasic system, using ISA water and n-octanol. Specifically, Sirius T3 control software uses three evaluation models of experimental logP, whose choice is based on the calculated logP values (calclogP < 1, “Low-logP” method; 1 < calclogP < 3, “Medium-logP” method; calclogP > 3, “High-logP” method). Accordingly, the “Medium-logP” method was selected to evaluate the experimental logP (explogP) of the selected compounds. The titration was performed in triplicate and the raw data were elaborated using Sirius T3 refine software. The quality of the analysis was evaluated by comparing the titration curve of each analysis by calculating a root mean square deviation (RMSD). All the analysis yielded RMSD values < 0.5.

[4] = Potentiometric logP determination (Sirius T3); format: physicochemical; conditions: for logP: n-octanol/ISA water biphasic system, read-out: explogP
Text: as §1, §2, §3

Chain of fluorescently labelled rhIDO1 (NT650-IDO1) (P14902 whole entry): as the sequence (P14902 whole entry) above

| SMILES | Single-point MST classification [1] | Cytotoxicity (P1.HTR cells) | Kd [2] | BEI (binding efficiency index) [2] | FC L-Kyn (fold change of L-Kyn production) (murine IDO1) | Inhibition in P1.HTR cells (in words) (murine IDO1; 30 µM) | exppKa [3] | logP [4] | exppKa (second value) ([3]; Sirius T3, value printed after the slash) | explogP ([4]; n-octanol/water) |
| --- | --- | --- | --- | --- | --- | --- | --- | --- | --- | --- |
| NC(=O)Cn1c(/C=C/c2ccccc2)nc2ccccc21 [VIS539] | false positive hit compound | – | – | – | – | – | – | – | – | – |
| O=C1Nc2ccccc2/C1=C/C(=O)c1ccccc1 [VIS540 (16)] | binders | cytotoxic | 37.5 ± 11.5 µM | 18 | – | – | – | – | – | – |
| CN(C(=O)Nc1c[nH]c2ccccc12)c1ccccc1 [VIS544 (17)] | binders | – | 59.3 ± 22.9 µM | 16 | 0.55 ± 0.02 | – | – | – | – | – |
| O=C(NC1CCC(F)(F)CC1)c1ccc2cc[nH]c2c1 [VIS557 (18)] | binders | – | 4.83 ± 0.61 µM | 19 | – | weak inhibitor | – | – | – | – |
| O=C(Nc1nnc(-c2ccc(Cl)cc2)o1)C1CC1 [VIS572 (19)] | binders | – | 51.9 ± 18.4 µM | 16 | – | – | 8.1 | 2.1 | – | – |
| O=C(/C=C/c1ccco1)c1ccc(O)cc1 [VIS574 (22)] | – | – | 37 ± 16.8 µM | 21 | – | – | 7.8 | 2.6 | – | – |
| NC(=O)C1CCN(c2ccc3cccc(O)c3n2)CC1 [VIS580 (20)] | binders | – | 80.7 ± 10.6 µM | 15 | – | – | 5.7 | 1.9 | – | – |
| O=C(NCc1ccccn1)c1nn[nH]c1-c1ccc(F)cc1 [VIS597 (21)] | binders | – | 73.3 ± 16.2 µM | 14 | 0.56 ± 0.05 | – | 3.9 | 2 | 6.3 | – |
| OC(CC1c2ccccc2-c2cncn21)C1CCCCC1 (stereo not drawn) [compound 10, NLG919 analogue, reference compound] | – | – | – | – | – | – | 6.7 | – | – | 3.2 |
